Consider five compounds from ChEMBL document CHEMBL1125951, “Synthesis and dopaminergic activity of the enantiomers of 6-methyl-4,5a,6,7,8-hexahydrothiazolo[4,5-f]quinolin-2-amine (PD 128483)” (Bioorg Med Chem Lett, 1991).

The test system of experiment [1] is Rattus norvegicus. Kind of experiment: Compound was evaluated for reversal of the increase in rat striatum DOPA accumulation produced by the pretreatment with GBL (750 mg/Kg, ip) and NSD 1015 (100 mg/Kg, ip). It is filed as functional.
The target in another experiment is D(1A) dopamine receptor (Rattus norvegicus, UniProt P18901). As to the kind of experiment: In vitro binding affinity to Dopamine receptor D1 in rat striatal membranes using D1 antagonist [3H]SCH-23390. The format is cell membranes, Striatum, Membrane.
Chain of D(1A) dopamine receptor (P18901 whole entry): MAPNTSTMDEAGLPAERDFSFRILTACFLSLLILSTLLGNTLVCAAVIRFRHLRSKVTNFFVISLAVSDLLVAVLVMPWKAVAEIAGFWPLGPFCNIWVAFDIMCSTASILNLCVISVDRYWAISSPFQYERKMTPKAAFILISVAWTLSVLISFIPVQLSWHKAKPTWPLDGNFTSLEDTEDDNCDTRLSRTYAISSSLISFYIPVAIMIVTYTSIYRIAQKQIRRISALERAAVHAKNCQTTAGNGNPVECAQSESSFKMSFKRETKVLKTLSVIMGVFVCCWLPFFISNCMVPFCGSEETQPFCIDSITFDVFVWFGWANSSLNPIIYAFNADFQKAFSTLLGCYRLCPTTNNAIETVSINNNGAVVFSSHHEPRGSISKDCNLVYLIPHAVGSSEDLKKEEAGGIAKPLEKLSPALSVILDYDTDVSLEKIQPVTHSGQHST
The test system of experiment [2] is Rattus norvegicus. Kind of experiment: Compound was evaluated for inhibition of the spontaneous firing of substantia nigra DA neurons in anesthetized rats at 2.5 mg/Kg (ip). It is filed as functional.
Experiment [3] addresses Dopamine receptors; D1 & D2 (Rattus norvegicus, UniProt P18901+P61169). Kind of experiment: In vitro binding affinity to Dopamine receptor D1/Dopamine receptor D2 in rat striatal membranes using [3H]N-propylnorapomorphine. It is filed as cell membranes, Striatum, Membrane.
Another experiment has as its target D(2) dopamine receptor (Rattus norvegicus, UniProt P61169). As to the kind of experiment: In vitro binding affinity to Dopamine receptor D2 in rat striatal membranes using D2 antagonist [3H]spiperone. The format is cell membranes, Striatum, Membrane.
Experiment [4] relates to Rattus norvegicus. Kind of experiment: Compound was evaluated for inhibition of the spontaneous firing of substantia nigra DA neurons in anesthetized rats at 0.25 mg/Kg (ip). It is filed as functional.
The subject of experiment [5] is Rattus norvegicus. As to the kind of experiment: Compound (2.0 mg/kg ip.) was evaluated for reversal of the increase in rat striatum DOPA accumulation produced by the pretreatment with GBL (750 mg/Kg, ip) and NSD 1015 (2 mg/Kg, ip). The format is functional.
Experiment [6] deals with Rattus norvegicus. As to the kind of experiment: Compound was evaluated for reversal of the increase in rat striatum DOPA accumulation produced by the pretreatment with GBL (750 mg/kg, ip) and NSD 1015 (100 mg/Kg, ip). It is filed as functional.

pIC50: −log10 of the molar value.

Chain of D(2) dopamine receptor (P61169 whole entry): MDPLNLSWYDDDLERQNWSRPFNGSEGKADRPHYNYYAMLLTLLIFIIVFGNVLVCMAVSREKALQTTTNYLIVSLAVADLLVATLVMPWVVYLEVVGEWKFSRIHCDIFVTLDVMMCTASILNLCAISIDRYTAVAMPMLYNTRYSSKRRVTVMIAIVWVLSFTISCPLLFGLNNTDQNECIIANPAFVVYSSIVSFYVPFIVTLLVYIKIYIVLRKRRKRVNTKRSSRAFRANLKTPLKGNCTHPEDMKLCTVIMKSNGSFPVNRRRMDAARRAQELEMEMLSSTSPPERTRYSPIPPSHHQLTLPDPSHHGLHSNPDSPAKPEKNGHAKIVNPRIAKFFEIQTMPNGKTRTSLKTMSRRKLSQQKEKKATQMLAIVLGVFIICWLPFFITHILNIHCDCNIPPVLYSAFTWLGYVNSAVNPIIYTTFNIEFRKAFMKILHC

By ED50 is commonly meant the midpoint of the dose-response relation. Usually pIC50 stands for the negative decadic logarithm of the IC50, by convention in mol/L. The low end stands for a large IC50, the high end for a small IC50. A word on the inhibition in vivo: it is the change of the read-out against control, counted positive when it falls. A lower inhibition in vivo goes with little suppression. `CCCN1CCC=C2c3nc(N)sc3CC[C@H]21`: in the experiment with Rattus norvegicus [1], the ED50 is 4.8 mg/kg. The compound also had a negative logarithm of the IC50 (pIC50) at D(1A) dopamine receptor of less than 4.82. The inhibition in vivo at 2.5 mg/kg in the experiment on Rattus norvegicus [2] came to 91%.

Broadly, the IC50 is the point on the concentration scale where inhibition reaches its midpoint. Low readings indicate inhibition by little substance, high ones a need for much substance. Turning to `CN1CCC=C2c3nc(N)sc3CC[C@H]21`, the IC50 in experiment [3] was 127 nM. Moreover, the pIC50 at D(2) dopamine receptor is 6.42; at D(1A) dopamine receptor, less than 4.70. Also, the ED50 with Rattus norvegicus [1] was 0.5 mg/kg. In the experiment on Rattus norvegicus [2], the inhibition in vivo at 2.5 mg/kg came to 99%.

For `CCCN1CCC=C2c3nc(N)sc3CC[C@@H]21`, the ED50 in the experiment on Rattus norvegicus [1] was greater than 10 mg/kg. In addition, the pIC50 at D(1A) dopamine receptor is less than 4.82. The inhibition in vivo at 2.5 mg/kg with Rattus norvegicus [2] worked out at 22%.

Usually Inhibition stands for the drop in the measured response relative to a control, in per cent. In turn, `CN1CCc2cccc3c2[C@H]1Cc1ccc(O)c(O)c1-3` [APOMORPHINE] registered an inhibition in vivo at 0.25 mg/kg in the experiment with Rattus norvegicus [4] of 100%. In addition, the Inhibition with Rattus norvegicus [5] was found to be 100%.

For the compound `CN1CCC=C2c3nc(N)sc3CC[C@@H]21`, the IC50 in experiment [3] came to 464 nM. The figures for the pIC50 at D(2) dopamine receptor and at D(1A) dopamine receptor were 6.11 and less than 4.70, respectively. In addition, in the experiment on Rattus norvegicus [2], the inhibition in vivo at 2.5 mg/kg was 67%. Besides, in the experiment on Rattus norvegicus [6], the ED50 is greater than 10 mg/kg.
